Measured values reported in the NIST ThermoML archive (doi:10.1016/j.jct.2014.07.022).

Assay: xn = mol fraction of the nth substance listed
Settings: Gas, Spherical resonator

[C-]#[O+] [carbon monoxide] + N#N
Settings	speed of sound [m/s]
273.04 K, 5000 kPa, x1 = 0.04999	345.57
273.04 K, 7995 kPa, x1 = 0.04999	354.43
273.05 K, 99 kPa, x1 = 0.04999	336.94
273.05 K, 995 kPa, x1 = 0.04999	337.99
273.05 K, 2997 kPa, x1 = 0.04999	341.18
273.05 K, 3989 kPa, x1 = 0.04999	343.2
273.05 K, 5997 kPa, x1 = 0.04999	348.21
273.05 K, 6998 kPa, x1 = 0.04999	351.18
273.11 K, 1992 kPa, x1 = 0.04999	339.44
273.16 K, 996 kPa, x1 = 0.1002	338.03
273.17 K, 1993 kPa, x1 = 0.1002	339.46
273.17 K, 2993 kPa, x1 = 0.1002	341.21
273.17 K, 4989 kPa, x1 = 0.1002	345.57
273.17 K, 6000 kPa, x1 = 0.1002	348.25
273.18 K, 3997 kPa, x1 = 0.1002	343.25
273.18 K, 6994 kPa, x1 = 0.1002	351.2
273.18 K, 8019 kPa, x1 = 0.1002	354.55
273.18 K, 8970 kPa, x1 = 0.1002	357.95
273.2 K, 9955 kPa, x1 = 0.1002	361.78
273.24 K, 9010 kPa, x1 = 0.04999	358.19
273.24 K, 9993 kPa, x1 = 0.04999	361.99
324.94 K, 117 kPa, x1 = 0.1002	367.62
324.94 K, 5998 kPa, x1 = 0.1002	381.69
324.94 K, 10006 kPa, x1 = 0.1002	394.85
324.95 K, 1001 kPa, x1 = 0.1002	369.33
324.95 K, 3002 kPa, x1 = 0.1002	373.73
324.95 K, 3998 kPa, x1 = 0.1002	376.19
324.95 K, 8963 kPa, x1 = 0.1002	391.17
324.96 K, 1989 kPa, x1 = 0.1002	371.42
324.96 K, 5002 kPa, x1 = 0.1002	378.87
324.96 K, 6999 kPa, x1 = 0.1002	384.73
324.96 K, 7996 kPa, x1 = 0.1002	387.92
324.99 K, 8000 kPa, x1 = 0.04999	387.94
325 K, 1002 kPa, x1 = 0.04999	369.31
325 K, 1991 kPa, x1 = 0.04999	371.4
325.01 K, 99 kPa, x1 = 0.04999	367.57
325.01 K, 3003 kPa, x1 = 0.04999	373.73
325.01 K, 4998 kPa, x1 = 0.04999	378.87
325.03 K, 3999 kPa, x1 = 0.04999	376.21
325.03 K, 5995 kPa, x1 = 0.04999	381.72
325.05 K, 9002 kPa, x1 = 0.04999	391.36
325.13 K, 10001 kPa, x1 = 0.04999	394.94
325.23 K, 7007 kPa, x1 = 0.04999	384.9
